According to US20190225989A1, “GENE KNOCKIN METHOD AND KIT FOR GENE KNOCKIN” (Institute of Hematology and Blood Disease Hospital, CAMS & …, priority 2018, published 2019):

Key:
Type in all cases: cell-based, human
[1] = system: PRDM14 locus in iPSCs; experiment: Effects of small molecules and factors on HDR efficiency, FACS
From the text: (§1) In this experiment, the verified highly efficient pD-sg-HA300-300 bp double cut donor and multiple small molecules were used to examine the effects on HDR of both the CTNNB1 and PRDM14 loci in iPSCs. Multiple small molecules include RS-1 (a stimulator of human homologous recombination protein RAD51), NU7441 (a DNA-PKcs inhibitor), SCR7 (a DNA ligase IV inhibitor), Brefeldin A, L755507, and
(§2) iPSCs were evenly split into eight wells after nucleofection with Cas9/sgRNA and the relevant double cut donor (pD-mNeonGreen-sg-HA300-300 bp or pD-GFP-sg-HA300-300 bp). DMSO control (0.1%), RS-1 (10 μM), Nu7441 (2 μM), SCR7 (1 μM), Brefeldin A (0.1 μM), L755507 (5 μM), Nocodazole (100 ng/mL), or Nu7441 (2 μM) and SCR7 (1 μM) were added in the wells for the first 24 h and then the medium was changed with fresh medium thereafter. Three days after nucleofection, cells were harvested for FACS analysis to determine the HDR efficiency in each condition.
(§3) The plasmid encoding RAD51, Ad4E1B-Eorf46, or CCND1 was co-transfected with Cas9, sgRNA, and donor plasmid (pD-mNeonGreen-sg-HA300-300 bp or pD-GFP-sg-HA300-300 bp). Three days after transfection, cells were harvested for FACS analysis to determine the HDR efficiency in each condition.
(§4) In this experiment, CCND1 and Nocodazole were used together to examine the effects on HDR of both the CTNNB1 and PRDM14 loci in iPSCs. The plasmid encoding CCND1 was co-transfected with Cas9, sgRNA, and donor plasmid (pD-mNeonGreen-sg-HA300-300 bp or pD-GFP-sg-HA300-300 bp). Nocodazole (100 ng/mL) was added into the medium at 0-24 h after transfection. Three days after incubation, cells were harvested for FACS analysis to determine the HDR efficiency in each condition.

[2] = system: CTNNB1 locus in iPSCs; experiment: as above; settings: for effect on HDR efficiency at the CTNNB locus: donor pD-mNeonGreen-sg-HA300-300 bp, added first 24 h: RS-1 10 μM, Nu7441 2 μM, SCR7 1 μM, Brefeldin A 0.1 μM, L755507 5 μM
From the text: as §1, §2, §3, §4

[3] = system: PRDM14 locus in the H1 ES cells; experiment: Effects of small molecules on HDR efficiency, FACS; settings: FACS day 3; for effect on HDR efficiency at the PRDM14 locus: donor pD-GFP-sg-HA300-300 bp, added first 24 h: RS-1 10 μM, Nu7441 2 μM, SCR7 1 μM, Brefeldin A 0.1 μM, L755507 5 μM
Protocol: as §2, with “In this experiment, the H1 ES cells” for “iPSCs”

[4] = system: CTNNB1 locus in the H1 ES cells; experiment: Effects of small molecules on HDR efficiency, FACS; settings: FACS day 3; for effect on HDR efficiency at the CTNNB locus: donor pD-mNeonGreen-sg-HA300-300 bp, added first 24 h: RS-1 10 μM, Nu7441 2 μM, SCR7 1 μM, Brefeldin A 0.1 μM, L755507 5 μM
Protocol: as §2, with “In this experiment, the H1 ES cells” for “iPSCs”

[5] = system: CTNNB1 locus in iPSCs; experiment: sgRNA cleavage efficiency at CTNNB1; settings: targets 39 bp before the stop codon, data not shown
[6] = system: PRDM14 locus in iPSCs; experiment: sgRNA cleavage efficiency at PRDM14; settings: cleavage site 4 bp downstream of the stop codon, data not shown
[7] = donor pD-GFP-sg-HA300-300 bp, added first 24 h: RS-1 10 μM, Nu7441 2 μM, SCR7 1 μM, Brefeldin A 0.1 μM, L755507 5 μM, FACS day 3, vs DMSO
[8] = Nocodazole 100 ng/mL first 24 h, FACS day 3, vs DMSO, P<0.001
[9] = Nocodazole 100 ng/mL first 24 h

Molecule	effect on HDR efficiency at the PRDM14 locus [1, 7]	effect on HDR efficiency at the CTNNB locus ([2]; FACS day 3, vs DMSO)	effect on HDR efficiency at the PRDM14 locus [3]	effect on HDR efficiency at the CTNNB locus [4]	also measured
O=c1cc(N2CCOCC2)oc2c(-c3cccc4c3sc3ccccc34)cccc12 [Nu7441, NU7441]	only at the CTNNB locus	less pronounced improvement	only at the CTNNB locus	less pronounced improvement	
O=C(Nc1ccc(Br)cc1)c1ccc(Br)c(S(=O)(=O)NCc2ccccc2)c1 [RS-1]	did not show significant improvement	did not show significant improvement	did not show significant improvement	did not show significant improvement	
COC(=O)Nc1nc2ccc(C(=O)c3cccs3)cc2[nH]1 [Nocodazole]					increase of HDR efficiency at the PRDM14 locus [1, 8]: ~50%; increase of HDR efficiency at the CTNNB locus [2, 8]: ~50%; increase of HDR efficiency at the PRDM14 locus [3, 9]: ~50%; increase of HDR efficiency at the CTNNB locus [4, 9]: ~50%
sgCTNNB1: sgRNA targeting 39 bp before the CTNNB1 stop codon, GCTGATTGCTGTCACCTGG (SEQ ID NO: 5) (listed as DNA, chemistry not given here)					cleavage efficiency [5]: 60%
CCCCCCNC(=O)Nc1ccc(S(=O)(=O)Nc2ccc(CCNC[C@H](O)COc3ccc(O)cc3)cc2)cc1 [L755507]	did not show significant improvement	did not show significant improvement	did not show significant improvement	did not show significant improvement	
O=c1[nH]c(=S)[nH]c(N=Cc2ccccc2)c1N=Cc1ccccc1 [SCR7]	did not show significant improvement	did not show significant improvement	did not show significant improvement	did not show significant improvement	
C[C@H]1CCC/C=C/[C@@H]2C[C@H](O)C[C@H]2[C@H](O)/C=C/C(=O)O1 [Brefeldin A]	only at the CTNNB locus	less pronounced improvement	only at the CTNNB locus	less pronounced improvement	
sgPRDM14: sgRNA targeting the sequence surrounding the PRDM14 stop codon, GAAGACTACTAGCCCTGCC (SEQ ID NO: 11) (listed as DNA, chemistry not given here)					cleavage efficiency [6]: ~30%
RAD51: key factor in the homologous recombination pathway, given as EF1-driven expression plasmid (protein, UniProt Q06609 2-339, looked up, expressed from EF1 plasmid) DNA repair protein RAD51 …: AMQMQLEANADTSVEEESFGPQPISRLEQCGINANDVKKLEEAGFHTVEAVAYAPKKELINIKGISEAKADKILAEAAKLVPMGFTTATEFHQRRSEIIQITTGSKELDKLLQGGIETGSITEMFGEFRTGKTQICHTLAVTCQLPIDRGGGEGKAMYIDTEGTFRPERLLAVAERYGLSGSDVLDNVAYARAFNTDHQTQLLYQASAMMVESRYALLIVDSATALYRTDYSGRGELSARQMHLARFLRMLLRLADEFGVAVVITNQVVAQVDGAAMFAADPKKPIGGNIIAHASTTRLYLRKGRGETRICKIYDSPCLPEAEAMFAINADGVGDAKD					effect on HDR efficiency at the PRDM14 locus ([1]; expression plasmid co-transfected with Cas9, sgRNA and pD-GFP-sg-HA300-300 bp, FACS day 3, P<0.001): significantly decreased; effect on HDR efficiency at the CTNNB1 locus ([2]; expression plasmid co-transfected with Cas9, sgRNA and pD-mNeonGreen-sg-HA300-300 bp, FACS day 3, P<0.001): significantly decreased
